Our source for the CC50 and EC50 values is ChEMBL document CHEMBL1156829 (Proc Natl Acad Sci U S A, 2008).

The nature of series [1]: NOVARTIS: Cytotoxicity against human hepatocellular carcinoma cell line (Huh7). It is filed as toxicity, cell-based, Huh-7. Particulars: Huh7 cells (hepatocellular carcinoma cell line).
Series [2] has as its system Plasmodium falciparum. Put plainly: NOVARTIS: Inhibition of Plasmodium falciparum 3D7 (drug-susceptible) proliferation in erythrocyte-based infection assay. Particulars: Plasmodium falciparum, 3D7. It is filed as functional, organism-based.
The test system of series [3] is Plasmodium falciparum. Kind of series: NOVARTIS: Inhibition of Plasmodium falciparum W2 (drug-resistant) proliferation in erythrocyte-based infection assay. It is filed as functional, organism-based. Particulars: Plasmodium falciparum, W2; read-out: EC50.

As usually defined, the CC50 is the concentration giving 50% cytotoxicity. Read a low CC50 as harm at low concentration. Broadly, the EC50 is the midpoint of the concentration-response curve. With `O=C(NCCCN1CCCC1=O)c1ccc2nc(N3CCOCC3)sc2c1`, in series [1], it took 26.8 µM to reach half-maximal cytotoxicity (CC50). In addition, the EC50 worked out at 7.24 µM with Plasmodium falciparum [2] and 4.69 µM in the series on Plasmodium falciparum [3].
For `CCCOc1ccc(C(=O)Nc2cccc(-c3nc4ncccc4o3)c2)cc1`, in that order: over 10 µM, 0.415 µM and over 1.75 µM.
`COc1cc(C(=O)Nc2ccc3nc4n(c(=O)c3c2)CCCCC4)cc(OC)c1OC` returned a CC50 in series [1] of over 10 µM. In addition, the values for the EC50 with Plasmodium falciparum [2] and in the series with Plasmodium falciparum [3] were over 0.589 µM and 1.88 µM, respectively.
In turn, `CC1(C)Oc2ccc(C(=O)N3CCCC3)cc2N(CCc2ccccc2)C1=O` displayed a CC50 in series [1] of over 10 µM. Besides, the half-maximal effective concentration (EC50) with Plasmodium falciparum [2] is over 1.12 µM; in the series on Plasmodium falciparum [3] it was 1.87 µM.
For the compound `Cc1cccc(Nc2nc3nonc3[nH]c2=NN=Cc2cccs2)c1C`, the midpoint of cytotoxicity in series [1], the CC50, lay at 23.3 µM. The EC50 in the series with Plasmodium falciparum [2] is 8.65 µM; in the series with Plasmodium falciparum [3], 4.3 µM.
For `O=C(Nc1ccc2c(c1)OCO2)c1cc2cc(C3(O)CCN(CCCc4ccccc4)CC3)ccc2o1`, in that order: 6.32 µM, 0.912 µM and 1.18 µM.
For `COc1ccc(CCN(Cc2ccc(Cl)cc2)S(=O)(=O)c2ccc(S(N)(=O)=O)cc2)cc1OC`, in that order: 67.3 µM, 4.72 µM and over 12.5 µM.
In turn, `CCOC(=O)c1[nH]c(C)c(CNc2cccc(OC)c2)c1C` returned a cytotoxic concentration (CC50) in series [1] of 6.98 µM. The EC50 was found to be 1.51 µM with Plasmodium falciparum [2] and 1.2 µM in the series with Plasmodium falciparum [3].
For `COc1cccc(CNC(=O)Cn2ncc3c(=O)oc4ccc(C)cc4c32)c1`, in that order: over 10 µM, over 1.73 µM and 1.76 µM.
For `CCOC(=O)C1=C(C)NC2=C(C(=O)CCC2)C1c1cc(Br)c(O)c(OCC)c1` (centres undefined), in that order: over 10 µM, over 0.51 µM and over 1.76 µM.
The like results for `O=C(NC(C(=O)c1ccccc1)N1CCCCC1)c1ccco1` (centres undefined) were, in that order, over 10 µM, over 0.831 µM and over 1.76 µM.
For `Cc1ccccc1NC(=O)N(CCCNC(=O)CCl)c1ccccc1`, the CC50 in series [1] is over 10 µM. For the same compound, the results for the concentration for a half-maximal effect (EC50) in the series on Plasmodium falciparum [2] and with Plasmodium falciparum [3] were over 0.442 µM and 1.77 µM, respectively.
Turning to `O=C(c1ccncc1)N1N=C(c2c(-c3ccccc3)c3cc(Br)ccc3[nH]c2=O)CC1c1ccccc1` (centres undefined), the half-maximal cytotoxic concentration (CC50) in series [1] came to 8.7 µM. Moreover, the EC50 was 0.144 µM with Plasmodium falciparum [2] and 1.54 µM in the series with Plasmodium falciparum [3].
The like results for `Oc1ccccc1C=NNc1nnc2c3ccccc3n(Cc3ccccc3)c2n1` were, in that order, over 10 µM, over 0.832 µM and over 1.72 µM.
The like results for `Brc1cc(Br)c2c(-c3ccccc3)n(-c3ccccc3)nc(-c3ccccc3)c1-2` were, in that order, over 10 µM, 0.753 µM and over 1.71 µM.
For `CN1CCN(N/C=C2/C(=O)N(c3nc4ccccc4s3)N=C2c2ccccc2)CC1`, in that order: over 10 µM, over 0.549 µM and over 1.74 µM.
In turn, `C[C@@H]1C[C@@H](C)C(=O)[C@@H](C(O)CC2CC(=O)NC(=O)C2)C1` (some centres undefined) returned a CC50 in series [1] of 2.14 µM. In addition, the figures for the EC50 in the series on Plasmodium falciparum [2] and in the series on Plasmodium falciparum [3] were 0.153 µM and 0.366 µM, respectively.
For `O=[N+]([O-])c1ccc2nc(NC3CCCCC3)c(NC3CCCCC3)nc2c1`, in that order: 14.7 µM, 2.49 µM and 2.65 µM.
For `O=C(COC(=O)c1ccccc1O)c1ccc(Br)cc1`, in that order: over 10 µM, 1.54 µM and 1.82 µM.
The compound `Cc1ccc(-n2c(=S)sc3c(=O)n(-c4ccccc4)c(SCC(=O)c4ccccc4)nc32)cc1C` displayed a CC50 in series [1] of over 10 µM. For the same compound, the EC50 in the series on Plasmodium falciparum [2] is over 1.25 µM; in the series with Plasmodium falciparum [3], 1.79 µM.
Compound `COc1cccc(C2(NC(=O)CCn3ccnc3-c3ccccc3)CCCC2)c1` showed a cytotoxic concentration (CC50) in series [1] of over 10 µM. Moreover, the EC50 in the series on Plasmodium falciparum [2] was over 1.25 µM; in the series with Plasmodium falciparum [3] it was 1.78 µM.
For `COc1ccc(-c2ccc(C(=O)N(C)Cc3cscn3)c(N3CCC(N4CCc5ccccc5C4)CC3)n2)cc1`, the CC50 in series [1] was over 10 µM. Further, the EC50 is over 1.25 µM in the series on Plasmodium falciparum [2] and 1.75 µM in the series on Plasmodium falciparum [3].
As for `COc1cc(-c2nc(-c3ccccc3)c(-c3ccc(O)cc3)[nH]2)cc(OC)c1O`, the CC50 in series [1] was over 10 µM. Moreover, the 50% effective concentration (EC50) in the series on Plasmodium falciparum [2] is 0.879 µM; in the series on Plasmodium falciparum [3] it was over 1.75 µM.
The like results for `CCOC(=O)C1=C(C)N/C(=C\c2cc(C)n(-c3ccc(C)cc3C)c2C)C1=O` were, in that order, over 10 µM, over 1.25 µM and 1.74 µM.
`CCOC(=O)c1cnc2ccc(OC)cc2c1Nc1ccc(N2CCN(C)CC2)cc1` came in with a CC50 in series [1] of over 10 µM. The figures for the EC50 with Plasmodium falciparum [2] and in the series with Plasmodium falciparum [3] were 1.09 µM and over 1.7 µM, respectively.
The like results for `COc1cccc(OC)c1C(=O)Nc1cc(C(F)(F)F)ccc1Cl` were, in that order, over 10 µM, over 1.25 µM and 1.81 µM.
`CCCCC(CC)C(=O)N1CCN(C(C)c2nc3ccc(Cl)cc3c(=O)n2C)CC1` (centres undefined) came in with a CC50 in series [1] of over 10 µM. Moreover, the EC50 is over 1.49 µM in the series with Plasmodium falciparum [2] and 1.81 µM in the series with Plasmodium falciparum [3].
Regarding `Cc1cc(NC(=O)/C=C/c2ccccc2Cl)ccc1Br`, the 50% cytotoxic concentration (CC50) in series [1] is over 10 µM. The results for the 50% effective concentration (EC50) with Plasmodium falciparum [2] and in the series with Plasmodium falciparum [3] were 1.35 µM and 1.81 µM, respectively.
In turn, `O=C(NC1CC1)c1ccc(N2C(=O)C3C4c5ccccc5C(c5ccccc54)C3C2=O)cc1` (centres undefined) yielded a half-maximal cytotoxic concentration (CC50) in series [1] of over 10 µM. The EC50 in the series on Plasmodium falciparum [2] was over 0.872 µM; in the series with Plasmodium falciparum [3], 1.9 µM.
In turn, `O=C(Nc1ccc(C(F)(F)F)cc1)c1cc(S(=O)(=O)NC2CCCCCC2)ccc1F` had a half-maximal cytotoxic concentration (CC50) in series [1] of 17.7 µM. Also, the results for the half-maximal effective concentration (EC50) in the series with Plasmodium falciparum [2] and in the series with Plasmodium falciparum [3] were 4 µM and 3.33 µM, respectively.
Regarding `Cc1ccc2[nH]c(/C(C#N)=C/c3cn(Cc4ccc(Cl)cc4Cl)nc3-c3ccccc3)nc2c1`, in series [1], the cytotoxic concentration (CC50) was over 10 µM. Moreover, the EC50 in the series on Plasmodium falciparum [2] was over 1.01 µM; in the series on Plasmodium falciparum [3] it was 1.88 µM.
With `CCOc1ccc(CN(CCC(c2ccccc2)c2ccccc2)C(=O)Nc2ccccc2C)cc1`, the 50% cytotoxic concentration (CC50) in series [1] was over 10 µM. Further, the concentration for a half-maximal effect (EC50) was over 1.35 µM in the series with Plasmodium falciparum [2] and 1.85 µM in the series on Plasmodium falciparum [3].
With `CCN1C(=O)NC(c2cccc(NC(=O)Nc3cc(C(F)(F)F)cc(C(F)(F)F)c3)c2)C(C(=O)OC(C)C)=C1C` (centres undefined), in series [1], the half-maximal cytotoxic concentration (CC50) worked out at 35.3 µM. For the same compound, the EC50 was 8.42 µM in the series with Plasmodium falciparum [2] and 6.01 µM in the series on Plasmodium falciparum [3].
For `CC(C)(c1ccc(Oc2ccc(NC(=O)c3ccccc3)cc2)cc1)c1cccc(Oc2ccc(NC(=O)c3ccccc3)cc2)c1`, in that order: over 10 µM, 1.56 µM and 1.77 µM.
For `CC(C)(C)c1ccc(NC(=O)CN2CCCCC2)cc1`, in that order: 49.7 µM, over 12.5 µM and over 8.77 µM.
`O=C(Nc1ccc(N2CCCCC2)cc1)c1cc2ccccc2o1` showed a half-maximal cytotoxic concentration (CC50) in series [1] of over 3.66 µM. The EC50 in the series with Plasmodium falciparum [2] is over 1.3 µM; in the series on Plasmodium falciparum [3], 0.634 µM.
For `COC(=O)c1ccccc1NC(=O)COc1cccc(OC)c1`, in that order: over 10 µM, over 1.41 µM and 1.86 µM.
In series [1], `COC(=O)COc1ccc(/C=C2\SC(=Nc3ccc(F)cc3)NC2=O)cc1` returned a CC50 of over 10 µM. The EC50 was over 0.757 µM with Plasmodium falciparum [2] and 1.79 µM in the series on Plasmodium falciparum [3].
The like results for `CC(C)CCn1c(NCc2ccccc2)nc2c1c(=O)n(CC(N)=O)c(=O)n2C` were, in that order, over 10 µM, over 1.25 µM and 1.71 µM.
For `C[n+]1ccc(C2OC2c2ccccc2)c2ccccc21` (centres undefined), in that order: over 10 µM, 1.38 µM and 1.74 µM.
For `Cc1cc(Nc2ccc(Cl)cc2)n2nnnc2n1`, in that order: over 10 µM, over 1.64 µM and 1.75 µM.
On to `COc1ccc([C@@H]2Nc3ccc(C(C)=O)cc3[C@@H]3C=CC[C@@H]32)cc1[N+](=O)[O-]`, for which, in series [1], the CC50 is over 10 µM. For the same compound, the half-maximal effective concentration (EC50) in the series on Plasmodium falciparum [2] is over 1.25 µM; with Plasmodium falciparum [3] it was 1.76 µM.
Consider `c1ccc(C2=NN(c3ccccc3)C(c3ccc4c(c3)OCO4)N2c2ccc(N3CCOCC3)cc2)cc1` (centres undefined), for which the CC50 in series [1] is over 10 µM. The EC50 amounted to 0.68 µM in the series on Plasmodium falciparum [2] and 1.78 µM in the series with Plasmodium falciparum [3].
The compound `O=[N+]([O-])c1ccc(-n2cccc2C=NNc2ncnc3sc4c(c23)CCCC4)cc1` yielded a CC50 in series [1] of 7.45 µM. Also, the half-maximal effective concentration (EC50) in the series with Plasmodium falciparum [2] was 2.78 µM; with Plasmodium falciparum [3] it was 1.41 µM.
The like results for `COCCCNC(=O)CSCc1nc(-c2ccccc2F)oc1C` were, in that order, over 10 µM, over 0.467 µM and over 1.74 µM.
The like results for `CCCNC(=O)N1CCC2(CC1)CC(=O)c1ccccc1O2` were, in that order, over 10 µM, over 1.25 µM and 1.77 µM.
The like results for `CCSc1ncnc2scc(-c3ccccc3)c12` were, in that order, over 10 µM, over 1.51 µM and 1.71 µM.
`CCOC(=O)NC(=O)N1CCC(c2nc(-c3cc(C(C)(C)C)c(O)c(C(C)(C)C)c3)cs2)CC1` yielded a CC50 in series [1] of over 10 µM. Also, the EC50 was found to be 1.66 µM in the series on Plasmodium falciparum [2] and 1.88 µM with Plasmodium falciparum [3].
Turning to `COc1ccc(CCNc2nc(NCCCn3ccnc3)ncc2C(=O)NCC(C)C)cc1OC`, the CC50 in series [1] was over 6.78 µM. The EC50 was 0.563 µM with Plasmodium falciparum [2] and over 1.25 µM in the series with Plasmodium falciparum [3].
For `COc1ccccc1NC(=O)Cn1cnc2sc(C(=O)Nc3ccc(F)cc3)c(C)c2c1=O`, in that order: over 10 µM, 0.513 µM and over 1.71 µM.
The like results for `c1ccc(CSc2scnc2[P+](c2ccccc2)(c2ccccc2)c2ccccc2)cc1` were, in that order, 3.19 µM, 0.335 µM and 0.563 µM.
In turn, `CC1=C(C(=O)OCCOc2ccccc2)C(c2cccc([N+](=O)[O-])c2)C2=C(CCCC2=O)N1` (centres undefined) had a CC50 in series [1] of over 10 µM. Besides, the figures for the EC50 with Plasmodium falciparum [2] and in the series with Plasmodium falciparum [3] were over 1.25 µM and 1.81 µM, respectively.
Regarding `CCOc1ccc(N2C(=O)NC(=O)/C(=C\c3cn(C(C)=O)c4ccccc34)C2=O)cc1`, in series [1], the half-maximal cytotoxic concentration (CC50) is over 10 µM. The EC50 with Plasmodium falciparum [2] was over 1.25 µM; in the series with Plasmodium falciparum [3] it was 1.86 µM.
